According to patent US7888331B2, “Ganglioside compositions and methods of use” (Seneb Biosciences, Inc., priority 2003, dated 2011):

System: mouse cortical cells
Test: Protection of cortical cells from apoptosis (hydrogen peroxide, MTT)
Assay type: cell-based
Details: approx. 0.1 μM, 50 μM hydrogen peroxide
Description: To induce apoptosis, mouse cortical cells were cultured and treated with 50 μM hydrogen peroxide for three hours prior to being treated with the ganglioside analogue. The cells were also treated with the hydrogen peroxide during treatment with the ganglioside analogue and post-treatment for 48 h. Cell death was assayed using the MTT assay.

LIGA-20 was tested, and the “protection of the cells from apoptosis” value was “approximately 20%”.
